From ChEMBL document CHEMBL1909046, “DrugMatrix in vitro pharmacology data”

Assays:
[1] = DRUGMATRIX: Glutamate, Kainate radioligand binding (ligand: [3H] Kainic acid); assay type: cell membranes, Rattus norvegicus, Wistar, Brain, Membrane; details: Not Active = under 50% inhibition at 10 µM
[2] = target: T1, C-X-C chemokine receptor type 2 (Homo sapiens, UniProt P25025); assay type: cell membranes, Membrane; details: cho-k1; further: in other assays of this panel Not Active means under 50% inhibition at 10 µM
T1 sequence (P25025 whole entry): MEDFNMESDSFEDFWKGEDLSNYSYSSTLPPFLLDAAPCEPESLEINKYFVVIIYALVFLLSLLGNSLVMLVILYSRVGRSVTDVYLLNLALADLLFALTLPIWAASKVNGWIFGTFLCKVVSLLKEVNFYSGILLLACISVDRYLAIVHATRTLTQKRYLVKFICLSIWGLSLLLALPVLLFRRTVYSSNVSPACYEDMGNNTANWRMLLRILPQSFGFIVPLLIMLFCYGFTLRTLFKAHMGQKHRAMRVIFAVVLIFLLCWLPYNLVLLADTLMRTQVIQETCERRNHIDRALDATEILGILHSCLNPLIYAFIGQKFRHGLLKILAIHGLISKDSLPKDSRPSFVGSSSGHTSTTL

[3] = target: Vascular endothelial growth factor receptor 1 (Homo sapiens, UniProt P17948); assay: biochemical; assay type: cell-based, HUVEC; further: in other assays of this panel Not Active means under 50% inhibition at 10 µM
[4] = target: 5-hydroxytryptamine receptor 1B (Rattus norvegicus, UniProt P28564); assay type: cell membranes, Wistar, Cerebral cortex, Membrane; further: in other assays of this panel Not Active means under 50% inhibition at 10 µM
[5] = target: T2, Adenosine receptor A3 (Homo sapiens, UniProt P0DMS8); assay type: cell membranes, CHO-K1, Membrane;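 further: radioligand binding assay with AB-MECA serving as the labeled ligand; in other assays of this panel Not Active means under 50% inhibition at 10 µM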
T2 sequence (P0DMS8 whole entry): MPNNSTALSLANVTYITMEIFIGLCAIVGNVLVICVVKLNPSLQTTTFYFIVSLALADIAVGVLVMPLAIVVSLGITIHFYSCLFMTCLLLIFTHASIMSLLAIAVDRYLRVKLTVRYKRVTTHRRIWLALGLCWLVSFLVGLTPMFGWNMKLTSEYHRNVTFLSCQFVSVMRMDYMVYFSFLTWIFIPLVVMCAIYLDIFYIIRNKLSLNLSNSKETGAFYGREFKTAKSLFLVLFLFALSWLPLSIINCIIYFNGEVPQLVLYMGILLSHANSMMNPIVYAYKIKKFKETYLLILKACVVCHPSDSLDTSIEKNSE

[6] = target: Aldo-keto reductase family 1 member B1 (Rattus norvegicus, UniProt P07943); assay: biochemical; assay type: tissue-based, Lens of camera-type eye

Chain of 5-hydroxytryptamine receptor 1B (P28564 whole entry): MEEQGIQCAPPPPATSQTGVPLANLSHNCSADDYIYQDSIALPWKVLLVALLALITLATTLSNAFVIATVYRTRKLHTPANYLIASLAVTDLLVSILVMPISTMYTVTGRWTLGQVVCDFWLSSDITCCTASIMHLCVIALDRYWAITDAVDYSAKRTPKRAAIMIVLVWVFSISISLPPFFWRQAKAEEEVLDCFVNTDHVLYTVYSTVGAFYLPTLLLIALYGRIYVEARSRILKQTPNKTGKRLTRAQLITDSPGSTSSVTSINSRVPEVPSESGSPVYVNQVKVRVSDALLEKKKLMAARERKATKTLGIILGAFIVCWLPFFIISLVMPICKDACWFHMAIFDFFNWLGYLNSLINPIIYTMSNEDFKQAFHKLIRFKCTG
Chain of Vascular endothelial growth factor receptor 1 (P17948 whole entry): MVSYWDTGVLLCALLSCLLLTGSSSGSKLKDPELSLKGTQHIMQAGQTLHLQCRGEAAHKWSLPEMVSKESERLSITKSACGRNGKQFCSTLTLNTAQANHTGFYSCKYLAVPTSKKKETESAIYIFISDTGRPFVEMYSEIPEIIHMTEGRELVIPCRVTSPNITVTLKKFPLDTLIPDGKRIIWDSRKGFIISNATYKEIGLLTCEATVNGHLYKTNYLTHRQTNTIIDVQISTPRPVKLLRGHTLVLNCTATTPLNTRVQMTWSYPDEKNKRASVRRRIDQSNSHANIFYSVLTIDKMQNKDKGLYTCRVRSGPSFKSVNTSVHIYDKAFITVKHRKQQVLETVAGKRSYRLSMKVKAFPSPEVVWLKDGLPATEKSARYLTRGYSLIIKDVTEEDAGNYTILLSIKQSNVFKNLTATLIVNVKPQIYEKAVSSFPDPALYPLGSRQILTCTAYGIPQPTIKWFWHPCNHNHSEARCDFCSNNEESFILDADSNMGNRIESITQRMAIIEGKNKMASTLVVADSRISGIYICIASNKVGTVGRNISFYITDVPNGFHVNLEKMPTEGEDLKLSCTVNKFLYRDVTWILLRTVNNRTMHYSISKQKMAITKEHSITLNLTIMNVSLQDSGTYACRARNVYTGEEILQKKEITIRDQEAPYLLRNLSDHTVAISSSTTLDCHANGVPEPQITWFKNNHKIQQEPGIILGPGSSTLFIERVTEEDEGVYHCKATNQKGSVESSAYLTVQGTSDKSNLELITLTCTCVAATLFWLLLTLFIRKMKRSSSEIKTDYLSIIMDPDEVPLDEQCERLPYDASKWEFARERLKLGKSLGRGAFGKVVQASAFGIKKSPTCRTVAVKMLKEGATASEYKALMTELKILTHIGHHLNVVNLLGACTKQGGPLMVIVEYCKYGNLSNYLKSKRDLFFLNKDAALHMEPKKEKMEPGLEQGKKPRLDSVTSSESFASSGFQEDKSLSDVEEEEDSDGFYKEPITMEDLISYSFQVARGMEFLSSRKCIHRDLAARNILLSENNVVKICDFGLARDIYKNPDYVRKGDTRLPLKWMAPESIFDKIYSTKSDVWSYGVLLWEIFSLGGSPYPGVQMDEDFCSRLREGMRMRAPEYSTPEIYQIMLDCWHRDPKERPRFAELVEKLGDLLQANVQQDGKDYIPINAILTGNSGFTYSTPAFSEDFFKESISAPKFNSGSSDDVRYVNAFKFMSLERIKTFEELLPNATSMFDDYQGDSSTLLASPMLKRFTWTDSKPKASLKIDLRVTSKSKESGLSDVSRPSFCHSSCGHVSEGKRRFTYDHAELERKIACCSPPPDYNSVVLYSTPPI

Compound	IC50 [1]	Ki [1]	IC50 [2]	IC50 ([3]; huvec)	IC50 [4]	IC50 ([5]; cho-k1)	IC50 [6]	IC50 ([3]; read-out: IC50) [nM]	Ki ([3]; read-out: Ki) [nM]	Ki [2]	Ki ([3]; huvec)	Ki [4]	Ki ([5]; cho-k1)	Ki [6]	IC50 ([6]; read-out: IC50) [nM]	IC50 ([4]; read-out: IC50) [nM]	Ki ([4]; read-out: Ki) [nM]	IC50 ([5]; read-out: IC50) [nM]	Ki ([5]; read-out: Ki) [nM]
C[C@H]([C@](O)(Cn1cncn1)c1ccc(F)cc1F)S(C)(=O)=O [GENACONAZOLE]	Not Active	Not Active	Not Active	Not Active	Not Active	Not Active	Not Active	–	–	–	–	–	–	–	–	–	–	–	–
Clc1cc2c(cc1Cl)Oc1cc(Cl)c(Cl)cc1O2 [2,3,7,8-TETRACHLORODIBENZO-P-DIOXIN]	Not Active	Not Active	Not Active	–	Not Active	Not Active	Not Active	2.69	0.697	–	–	–	–	–	–	–	–	–	–
Nn1nnc2ccccc21	Not Active	Not Active	Not Active	Not Active	Not Active	Not Active	Not Active	–	–	–	–	–	–	–	–	–	–	–	–
COc1ccccc1OCC(O)COC(N)=O (stereo unspecified) [METHOCARBAMOL]	Not Active	Not Active	Not Active	Not Active	Not Active	Not Active	Not Active	–	–	–	–	–	–	–	–	–	–	–	–
CC(C(=O)O)c1ccc(-c2ccccc2)c(F)c1 (stereo unspecified) [FLURBIPROFEN]	Not Active	Not Active	Not Active	Not Active	Not Active	Not Active	Not Active	–	–	–	–	–	–	–	–	–	–	–	–
Cc1c(F)c(N2CCNC(C)C2)cc2c1c(=O)c(C(=O)O)cn2C1CC1 (stereo unspecified) [GREPAFLOXACIN]	Not Active	Not Active	Not Active	Not Active	Not Active	Not Active	Not Active	–	–	–	–	–	–	–	–	–	–	–	–
Oc1ccccc1O [CATECHOL]	Not Active	Not Active	Not Active	Not Active	Not Active	Not Active	Not Active	–	–	–	–	–	–	–	–	–	–	–	–
O=P1(N(CCCl)CCCl)NCCCO1 (stereo unspecified) [CYCLOPHOSPHAMIDE ANHYDROUS]	Not Active	Not Active	Not Active	Not Active	Not Active	Not Active	Not Active	–	–	–	–	–	–	–	–	–	–	–	–
INSULIN HUMAN	Not Active	Not Active	Not Active	Not Active	Not Active	Not Active	Not Active	–	–	Not Active	Not Active	Not Active	Not Active	Not Active	–	–	–	–	–
CS(=O)(=O)OCCCCOS(C)(=O)=O [BUSULFAN]	Not Active	Not Active	Not Active	Not Active	Not Active	Not Active	Not Active	–	–	–	–	–	–	–	–	–	–	–	–
CC(C)(CO)C(O)C(=O)NCCCO (stereo unspecified) [PANTHENOL]	Not Active	Not Active	Not Active	Not Active	Not Active	Not Active	Not Active	–	–	–	–	–	–	–	–	–	–	–	–
O=C(O)c1cc(=O)c2c(OCC(O)COc3cccc4oc(C(=O)O)cc(=O)c34)cccc2o1 [CROMOLYN]	Not Active	Not Active	Not Active	Not Active	Not Active	Not Active	Not Active	–	–	–	–	–	–	–	–	–	–	–	–
O=C(/C=C/c1ccc(O)c(O)c1)OCCc1ccccc1 [CAFFEIC ACID PHENETHYL ESTER]	Not Active	Not Active	Not Active	Not Active	Not Active	Not Active	–	–	–	–	–	–	–	–	1410	–	–	–	–
Nc1nc(Cl)nc2c1ncn2[C@H]1C[C@H](O)[C@@H](CO)O1 [CLADRIBINE]	Not Active	Not Active	Not Active	Not Active	Not Active	Not Active	Not Active	–	–	–	–	–	–	–	–	–	–	–	–
CN1C[C@H](C(=O)N[C@]2(C)O[C@@]3(O)[C@@H]4CCCN4C(=O)[C@H](Cc4ccccc4)N3C2=O)C[C@@H]2c3cccc4[nH]cc(c34)C[C@H]21 [DIHYDROERGOTAMINE]	Not Active	Not Active	Not Active	Not Active	–	Not Active	Not Active	–	–	–	–	–	–	–	–	0.846	0.384	–	–
CC[C@H](C)C(=O)O[C@H]1C[C@@H](C)C=C2C=C[C@H](C)[C@H](CC[C@@H]3C[C@@H](O)CC(=O)O3)[C@H]21 [LOVASTATIN]	Not Active	Not Active	Not Active	Not Active	Not Active	Not Active	Not Active	–	–	–	–	–	–	–	–	–	–	–	–
CC[C@H](C)C(=O)O[C@H]1C[C@H](O)C=C2C=C[C@H](C)[C@H](CC[C@@H](O)C[C@@H](O)CC(=O)O)[C@H]21 [PRAVASTATIN]	Not Active	Not Active	Not Active	Not Active	Not Active	Not Active	Not Active	–	–	–	–	–	–	–	–	–	–	–	–
CCOC(=O)n1ccn(C)c1=S [CARBIMAZOLE]	Not Active	Not Active	Not Active	Not Active	Not Active	Not Active	Not Active	–	–	–	–	–	–	–	–	–	–	–	–
C#C[C@]1(O)CC[C@H]2[C@@H]3CCC4=Cc5oncc5C[C@]4(C)[C@H]3CC[C@@]21C [DANAZOL]	Not Active	Not Active	Not Active	Not Active	Not Active	–	Not Active	–	–	–	–	–	–	–	–	–	–	11200	6310
